Results taken from patent EP3409671B1, “ISOTHIAZOLE DERIVATIVES AS GPR120 AGONISTS FOR THE TREATMENT OF TYPE II DIABETES” (Janssen Pharmaceutica NV, priority 2014, dated 2015).

Tests used:
[1] = tested on: C57b1/6J Mice; assay: GPR120 C57bl6 Mouse IPGTT; format: in vivo; parameters: C57 IPGTT 10mg/kg: unit not given here; details: for C57 IPGTT 10mg/kg: 10mg/kg dosed 30 minutes prior to glucose IP 1.5g/kg; for C57 IPGTT 3mg/kg: 3mg/kg dosed 30 minutes prior to glucose IP 1.5g/kg
Experimental: Male, C57b1/6J Mice were ordered in at 8 weeks of age from Jackson Labs. Individual mice weighed anywhere in the range of 25-30 grams on study day. The mice were fasted, with removal of food occurring at 7am on the morning of the study. Animals were moved into the room at 10:00am, to give them time to acclimate. Glucose (insulin syringes) was drawn up either the night before or the morning of the study. Glucose was dosed (IP) at 1.5g/kg at 7.5ml/kg (20% glucose straight TEKNOVA, 250ml sterile bottle w/ catalogue number G0525). Test compounds were kept spinning and were only drawn into the syringes prior to study commencement. Animals were bled via tail snip to determine basal glucose levels prior to dosing of treatments. An Ascensia BREEZE Blood Glucose Monitoring System by Bayer (using unique 10-test disks) was used for determining glucose levels. The bleeds started at approximately 12:45pm and dosing started, at 1-minute intervals, immediately after. All groups were dosed 30 minutes prior to glucose administration at a dose volume of 10ml/kg (the dose volume was calculated separately for each individual animal). Thirty minutes after the first dose animals were bled again for a second baseline, or T=0, and immediately dosed with glucose via an i.p. injection. The exact dose volume for glucose was also calculated separately for each individual animal. Glucose measurements were taken at -30min prior to compound dose, at t=0 (immediately prior to glucose dose), and at 15, 30, 45, 60, 90min post glucose dose.
Glucose values were entered into an Excel sheet and graphed in GraphPad Prism. The following were calculated from Prism: Change from -30 to 0 BSLN Glucose, Raw Glucose AUC -30 to 90min, Delta Glucose AUC -30 to 90min, Raw Glucose AUC 0 to 90min, Delta Glucose AUC 0 to 90min.
Representative compounds of the present disclosure were tested according to the procedures as described in Biological Example 4, above with results as listed in Table 3, below. […] Where a compound was tested more than once, each result is listed individually. Table 3: GPR120 C57bl6 Mouse IPGTT OGTT Results

[2] = target: T1, Human GPR120 short form (Homo sapiens, UniProt Q5NUL3); assay: Human GPR120 Calcium Flux Assay, Procedure Calcium B; format: cell-based; details: HEK-293 cells expressing Human GPR120 short form, FLIPR, 4200 cells/well; read-out: GPR120 Ca^2+ Assay B EC50
T1 construct: expressed in transfected cells
T1 sequence (Q5NUL3 1-361): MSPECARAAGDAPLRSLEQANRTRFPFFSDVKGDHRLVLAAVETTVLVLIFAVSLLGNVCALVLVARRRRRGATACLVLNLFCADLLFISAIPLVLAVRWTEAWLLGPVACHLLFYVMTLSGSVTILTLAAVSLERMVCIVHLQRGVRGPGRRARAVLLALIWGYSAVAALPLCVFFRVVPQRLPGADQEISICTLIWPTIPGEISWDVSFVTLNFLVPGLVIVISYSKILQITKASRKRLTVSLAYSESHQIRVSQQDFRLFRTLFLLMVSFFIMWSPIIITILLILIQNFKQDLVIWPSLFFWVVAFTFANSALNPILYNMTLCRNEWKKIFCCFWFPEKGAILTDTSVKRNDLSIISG
From the text: (§1) This in vitro assay serves to assess test compound agonist activity against the short splice variant (SVS with Accession number NM_001195755.1 confirmed by sequencing data) of the GPR120 receptor. The Human Short splice variant #2 (NM_001195755.1) is missing an in-frame coding exon compared to variant 1 (the Human Long splice variant NM_181745.3), resulting in a shorter isoform (GPR120-S) lacking a 16 aa protein segment compared to isoform GPR120-L. The assay platform utilizes HEK-293 cells stably transfected to express the Human GPR120 short form. These cells are first loaded with the Ca^+2 sensitive dye, Fluo-4 NW. Upon stimulation, intracellular released Ca^+2 can bind to the dye and alter its fluorescence intensity. This increase in fluorescence signal, and thus the flux in intracellular [Ca^2+], is detected and quantitated by fluorescence imaging using a FLIPR reader. The effect of the agonist is measured as a function of concentration and used to calculate an EC50 based upon a response curve.
In this procedure 4200 cells/well were employed.
(§2) A Human GPR120 clone (Genbank accession number NM _001195755.1) was placed into the pcDNA3.1 mammalian expression vector carrying the neomycin resistance gene. A stable mammalian cell was generated by placing the above clone into a HEK293 background. Clonal cells responding to long chain fatty acids had expression levels of GPR120 confirmed by RT-qPCR. Human HEK-GPR120 cells were cultured in Dulbecco's Modified Eagle's Medium (DMEM)/F12 medium supplemented with 10% fetal bovine serum (FBS), 1% L-Glutamine and 1% penicillin/streptomycin and 0.5 mg/ml G-418. Cells were split 2 times a week to keep the cells in the log-phase growth.
(§3) In preparation for the assay, HEK cells stably transfected with Human GPR120 (2.5K cells per well in 25uL growth medium) were seeded into 384-well plates and then incubated overnight (37°C, 5% CO2). The next day, the media was changed to 20 µL assay buffer and the cell starved for 1h at 37°C. […]
(§4) The assay was performed on a FLIPR plate reader using the following parameters. Baseline was read for 10 seconds at 1 sec intervals. The program was set to transfer 10µL of ligand from compound plate to cell plate after baseline reading. […] After compound addition, each well was read for 300 sec, with measurements collected at 1 sec intervals.
(§5) The kinetic data from the FLIPR was based upon a 5 minute window for data collection. The fluorescence of each sample well was used for individual calculations of a normalized RFU value, which was defined as maximum response minus the minimum response. The normalized fluorescence reading (RFU) was calculated as follows: RFU = Fmax−Fmin [formula] […]

[3] = target: T1, Human GPR120 short form; assay: Human GPR120 Calcium Flux Assay, Procedure Calcium A; format: cell-based; details: HEK-293 cells expressing Human GPR120 short form, FLIPR, 2500 cells / well; read-out: GPR120 Ca^2+ Assay A EC50
From the text: as §1
In this procedure 2500 cells / well were employed.
as §2, §3, §4, §5

| Structure (SMILES) | C57 IPGTT 10mg/kg [1] | C57 IPGTT 3mg/kg [1] | also measured |
| --- | --- | --- | --- |
| OCCCc1cc(F)c(OCc2c(-c3ccc(Cl)cc3)nsc2C(F)(F)F)c(F)c1 [Cpd 100, 3-(4-[[3-(4-chlorophenyl)-5-(trifluoromethyl)-1,2-thiazol-4-yl]methoxy]-3,5-difluorophenyl)propan-1-ol] | -42 |  |  |
| CCc1ccc(-c2nsc(C(F)(F)F)c2COc2c(F)cc(CCC(=O)O)cc2F)cc1 [Cpd 70, 3-(4-[[3-(4-ethylphenyl)-5-(trifluoromethyl)-1,2-thiazol-4-yl]methoxy]-3,5-difluorophenyl)propanoic acid] |  |  | C57 IPGTT 30mg/kg ([1]; 30mg/kg dosed 30 minutes prior to glucose IP 1.5g/kg): -88 |
| O=C(O)CCc1cc(F)c(OCc2c(-c3ccc(Cl)cc3)nsc2C(F)(F)F)c(F)c1 [Cpd 79, 3-(4-[[3-(4-chlorophenyl)-5-(trifluoromethyl)-1,2-thiazol-4-yl]methoxy]-3,5-difluorophenyl)propanoic acid] | -60 |  |  |
| COC(=O)CCc1cc(F)c(OCc2c(-c3ccc(Cl)cc3F)nsc2C(F)(F)F)c(F)c1 [Cpd 263, Methyl 3-(4-{[3-(4-chloro-2-fluorophenyl)-5-(trifluoromethyl)isothiazol-4-yl]methoxy}-3,5-difluorophenyl)propanoate] |  |  | EC50 [2]: > 5 µM |
| O=C(O)CCc1cc(F)c(OCc2c(-c3ccc(F)c(F)c3)nsc2C(F)(F)F)c(F)c1 [Cpd 129, 3-(4-((3-(3,4-difluorophenyl)-5-(trifluoromethyl)isothiazol-4-yl)methoxy)-3,5-difluorophenyl)propanoic acid] |  |  | EC50 [3]: 125 nM |
| Cc1ccccc1-c1snc(Cl)c1COc1cc(C(F)(F)F)c(CCC(=O)O)cc1F [Cpd 246, 3-(4-((3-chloro-5-(o-tolyl)isothiazol4-yl)methoxy)-5-fluoro-2-(trifluoromethyl)phenyl)propanoic acid] |  |  | EC50 [3]: 2350 nM |
| O=C(O)CCc1cc(F)c(OCc2c(C3CCCC3)nsc2C(F)(F)F)c(F)c1 [Cpd 71, 3-(4-[[3-cyclopentyl-5-(trifluoromethyl)-1,2-thiazol-4-yl]methoxy]-3,5-difluorophenyl)propanoic acid] |  | -14 |  |
| O=C(O)CCc1ccc(OCc2c(-c3ccc(Cl)cc3)nsc2C(F)(F)F)c(F)c1F [Cpd 106, 3-(4-[[3-(4-chlorophenyl)-5-(trifluoromethyl)-1,2-thiazol-4-yl]methoxy]-2,3-difluorophenyl)propanoic acid] | -34 |  |  |
| CCc1ccc(-c2snc(Cl)c2COc2ccc(CCC(=O)O)c(C)c2C)cc1 [Cpd 85, 3-(4-[[3-chloro-5-(4-ethylphenyl)-1,2-thiazol-4-yl]methoxy]-2,3-dimethylphenyl)propanoic acid] | -48 | -29 |  |
| Cc1c(CCC(=O)O)ccc(OCc2c(-c3ccc(Cl)cc3)nsc2C(F)(F)F)c1C [Cpd 142, 3-(4-((3-(4-chlorophenyl)-5-(trifluoromethyl)isothiazol-4-yl)methoxy)-2,3-dimethylphenyl)propanoic acid] | -61 | -34 |  |
